Reference: US11179372B2, “Isoxazoline solution containing vitamin E for use with sanitized drinking water” (Intervet Inc., priority 2015, dated 2021)

What was measured:
[1] = test system: poultry red mite (D. gallinae); assay: Efficacy of Fluralaner in medicated drinking water against poultry red mite infestation of laying hens; assay type: in vivo, Dermanyssus gallinae; conditions: for % Inhibition of mites 24 hours after infestation on day 1 / % Inhibition of mites 24 hours after infestation on day 5 / % Inhibition of mites 24 hours after infestation on day 8 / % Inhibition of mites 24 hours after infestation on day 12 / % Inhibition of mites 24 hours after infestation on day 15 / % Inhibition of mites 24 hours after infestation on day 19 / % Inhibition of mites 24 hours after infestation on day 22 / % Mortality of mites 24 hours after infestation on day 1 / % Mortality of mites 24 hours after infestation on day 5 / % Mortality of mites 24 hours after infestation on day 8 / % Mortality of mites 24 hours after infestation on day 12 / % Mortality of mites 24 hours after infestation on day 15 / % Mortality of mites 24 hours after infestation on day 19 / % Mortality of mites 24 hours after infestation on day 22: laying hens
Text: The drinking water used was regular tap water not comprising a significant amount of oxidising sanitizer, and no vitamin E was used in the concentrated Fluralaner solution used. Experimental animals were chickens, particularly laying hens of about 30 weeks old. These were housed in a standard poultry house. Apparently healthy birds were assigned in a random way to treatment groups kept separately, and labelled individually. The birds were kept under natural light, and were given several days for acclimatization; drinking water consumption in each group was measured on three days prior to administration to calculate the average daily water consumption. Medicated water was prepared by diluting a concentrated Fluralaner solution (10 mg/ml) to the desired concentration of Fluralaner in regular tap water (hypochlorite <0.5 ppm). […] Groups A-D (n=6) were treated with doses of 2, 1 or 0.5 mg Fluralaner/kg BW once, or with 1 mg Fluralaner/kg BW in a repeated dose of 0.5 mg/kg BW on 2 occasions, 7 days apart. On day 0 (and group D additionally on day 7), the hens in groups A-D received Fluralaner via medicated drinking water. Group E received un-medicated drinking water ad libitum. The dose to be administered was calculated based on average body weights of each treatment group, measured one day before treatment (day −1, day 6). A concentrated Fluralaner solution was diluted in the drinking water to prepare medicated drinking water ready for consumption, via the following dosing regimen: • The volume of medicated water offered per group on day 0 (group D also on day 7) was approximately 50% of the calculated mean daily water intake measured previously in the respective group in order to ensure consumption of the full dose. • Once all medicated water was consumed the other 50% volume of the mean daily water intake was supplied as unmedicated tap water in the same drinker. On days 1, 5, 8, 12, 15, 19 and 22, four of the six hens per group were infested with approximately 200 vital, D. gallinae mites (unfed nymphs and adults that had starved before infestation for 7 days). From each infested hen approximately 25 engorged mites were collected after a few hours of presence in the animal box, next they were incubated for approximately 24 hours, after which their status was observed. The dead, damaged and/or live mites were counted visually using a binocular. Mites were classified as dead if no movement was determined or mites lay in a dorsal position. Mites were classified as damaged if their movement was uncoordinated. The Mite Mortality and Mite Inhibition percentage was calculated for each treated group in comparison to a non-treated negative control group.

[2] = Residues and withdrawal time in treated birds; assay type: in vivo; conditions: treated layer birds, oral uptake
[3] = Tolerance and plasma concentrations of Fluralaner in laying hens (Example 2); assay type: in vivo, chickens
Method: No vitamin E was present in the concentrated Fluralaner solution used to prepare the medicated drinking water.
The effectivity of an oral dosing regimen of Fluralaner was tested by administering medicated drinking water (via gavage) to laying hens, in 2 repeated doses of 0.25, 0.5 or 1.0 mg/kg body weight, administered 7 days apart, and challenging them with infestation by Northern fowl mites, via source birds and natural infestation. The birds were kept in separate pens, at 11 birds per pen.

[4] = Tolerance of Fluralaner in laying hens (Example 1); assay type: in vivo, chickens; conditions: 0.5-2 mg/kg BW via medicated drinking water
Method: Experimental animals were chickens, particularly laying hens of about 30 weeks old. These were housed in a standard poultry house. Apparently healthy birds were assigned in a random way to treatment groups kept separately, and labelled individually. The birds were kept under natural light, and were given several days for acclimatization; drinking water consumption in each group was measured on three days prior to administration to calculate the average daily water consumption. Medicated water was prepared by diluting a concentrated Fluralaner solution (10 mg/ml) to the desired concentration of Fluralaner in regular tap water (hypochlorite <0.5 ppm). […]
The dose to be administered was calculated based on average body weights of each treatment group, measured one day before treatment (day −1, day 6). A concentrated Fluralaner solution was diluted in the drinking water to prepare medicated drinking water ready for consumption, via the following dosing regimen: • The volume of medicated water offered per group on day 0 (group D also on day 7) was approximately 50% of the calculated mean daily water intake measured previously in the respective group in order to ensure consumption of the full dose. • Once all medicated water was consumed the other 50% volume of the mean daily water intake was supplied as unmedicated tap water in the same drinker.

[5] = Group A, 2 mg/kg BW once, drinking water
[6] = Group B, 1 mg/kg BW once, drinking water
[7] = Group C, 0.5 mg/kg BW once, drinking water
[8] = Group D, 1 (2 × 0.5) mg/kg BW, days 0 and 7, drinking water

Cc1cc(C2=NOC(c3cc(Cl)cc(Cl)c3)(C(F)(F)F)C2)ccc1C(=O)NCC(=O)NCC(F)(F)F (stereo not shown) [Fluralaner]
% Inhibition of mites 24 hours after infestation on day 1 [1, 5]: 100% | % Inhibition of mites 24 hours after infestation on day 5 [1, 5]: 100% | % Inhibition of mites 24 hours after infestation on day 8 [1, 5]: 100% | % Inhibition of mites 24 hours after infestation on day 12 [1, 5]: 100% | % Inhibition of mites 24 hours after infestation on day 15 [1, 5]: 81% | % Inhibition of mites 24 hours after infestation on day 19 [1, 5]: 14% | % Inhibition of mites 24 hours after infestation on day 22 [1, 5]: 0% | % Mortality of mites 24 hours after infestation on day 1 [1, 5]: 100% | % Mortality of mites 24 hours after infestation on day 5 [1, 5]: 100% | % Mortality of mites 24 hours after infestation on day 8 [1, 5]: 100% | % Mortality of mites 24 hours after infestation on day 12 [1, 5]: 100% | % Mortality of mites 24 hours after infestation on day 15 [1, 5]: 77% | % Mortality of mites 24 hours after infestation on day 19 [1, 5]: 1% | % Mortality of mites 24 hours after infestation on day 22 [1, 5]: 0% | % Inhibition of mites 24 hours after infestation on day 1 [1, 6]: 100% | % Inhibition of mites 24 hours after infestation on day 5 [1, 6]: 100% | % Inhibition of mites 24 hours after infestation on day 8 [1, 6]: 100% | % Inhibition of mites 24 hours after infestation on day 12 [1, 6]: 95% | % Inhibition of mites 24 hours after infestation on day 15 [1, 6]: 81% | % Inhibition of mites 24 hours after infestation on day 19 [1, 6]: 3% | % Inhibition of mites 24 hours after infestation on day 22 [1, 6]: 0% | % Mortality of mites 24 hours after infestation on day 1 [1, 6]: 100% | % Mortality of mites 24 hours after infestation on day 5 [1, 6]: 100% | % Mortality of mites 24 hours after infestation on day 8 [1, 6]: 100% | % Mortality of mites 24 hours after infestation on day 12 [1, 6]: 94% | % Mortality of mites 24 hours after infestation on day 15 [1, 6]: 77% | % Mortality of mites 24 hours after infestation on day 19 [1, 6]: 2% | % Mortality of mites 24 hours after infestation on day 22 [1, 6]: 0% | % Inhibition of mites 24 hours after infestation on day 1 [1, 7]: 100% | % Inhibition of mites 24 hours after infestation on day 5 [1, 7]: 100% | % Inhibition of mites 24 hours after infestation on day 8 [1, 7]: 100% | % Inhibition of mites 24 hours after infestation on day 12 [1, 7]: 75% | % Inhibition of mites 24 hours after infestation on day 15 [1, 7]: 19% | % Inhibition of mites 24 hours after infestation on day 19 [1, 7]: 0% | % Inhibition of mites 24 hours after infestation on day 22 [1, 7]: 0% | % Mortality of mites 24 hours after infestation on day 1 [1, 7]: 100% | % Mortality of mites 24 hours after infestation on day 5 [1, 7]: 100% | % Mortality of mites 24 hours after infestation on day 8 [1, 7]: 97% | % Mortality of mites 24 hours after infestation on day 12 [1, 7]: 55% | % Mortality of mites 24 hours after infestation on day 15 [1, 7]: 15% | % Mortality of mites 24 hours after infestation on day 19 [1, 7]: 0% | % Mortality of mites 24 hours after infestation on day 22 [1, 7]: 0% | % Inhibition of mites 24 hours after infestation on day 1 [1, 8]: 100% | % Inhibition of mites 24 hours after infestation on day 5 [1, 8]: 100% | % Inhibition of mites 24 hours after infestation on day 8 [1, 8]: 100% | % Inhibition of mites 24 hours after infestation on day 12 [1, 8]: 100% | % Inhibition of mites 24 hours after infestation on day 15 [1, 8]: 99% | % Inhibition of mites 24 hours after infestation on day 19 [1, 8]: 66% | % Inhibition of mites 24 hours after infestation on day 22 [1, 8]: 27% | % Mortality of mites 24 hours after infestation on day 1 [1, 8]: 100% | % Mortality of mites 24 hours after infestation on day 5 [1, 8]: 100% | % Mortality of mites 24 hours after infestation on day 8 [1, 8]: 100% | % Mortality of mites 24 hours after infestation on day 12 [1, 8]: 100% | % Mortality of mites 24 hours after infestation on day 15 [1, 8]: 98% | % Mortality of mites 24 hours after infestation on day 19 [1, 8]: 59% | % Mortality of mites 24 hours after infestation on day 22 [1, 8]: 14% | Onset of action against red mites ([1]; all administered doses): fast onset of action | Residue levels in eggs [2]: far below the MRL value | Tolerance in the hens ([3]; 2 single doses of 0.25, 0.5, or 1 mg/kg BW, 7 days apart, oral): well tolerated | Concentrations of Fluralaner in the birds' plasma ([3]; doses 0.25, 0.5, 1.0 mg/kg BW twice): increased proportionally to the dose administered | Tolerance in the hens [4]: well tolerated
